According to patent publication US9345791B2, “Ligands for targeting of S1P receptors for in vivo imaging and treatment of diseases” (Westfaelische Wilhelms-Universitaet Muenster, priority 2011, dated 2016):

How the values were obtained:
[1] = system: Lymphocytes (T- and B-cells); assay: Immunosuppressive activity in vivo: peripheral blood lymphopenia, flow cytometry; parameters: species or system mice; settings: for B cells / CD4+ / CD8+ / WBC: intraperitoneally at 1.25 microgramm/kg body weight, blood drawn 24 hours later; for WBC: peripheral blood; for immunosuppressive action / effectiveness (in words): summary of table 1 in text
Protocol: The compounds of the invention were tested for immunosuppressive biological activity in vivo based on the known ability of S1P analogues to induce peripheral blood lymphopenia due to lymphocyte trapping in secondary lymph organs. The immunosuppressive activity of compound 21 (555558) and of compound 27 (555890) was compared with the corresponding activity a non-fluorinated analogue compound 7 (5551091), and non-ω (or close to ω)-fluorinated compounds (compounds 8 (555535) and 12 (555517)) as well as with FTY720 as a standard. The compounds were injected intraperitoneally at 1.25 microgramm/kg body weight in a total volume of 200 microliter. 24 hours later, blood was drawn from the retroorbital plexus in 17.8 mM EDTA as an anti-coagulant. Lymphocytes (T- and B-cells) were analyzed by flow cytometry as following: After lysis of red blood cells by BD Pharm Lyse (Becton Dickinson) in 50 microliter blood, cells were washed, resuspended in 100 microliter FACS buffer (1% BSA in PBS), and antibodies to CD4, CD8 and B220 (Becton Dickinson) were added (1 microliter antibody per sample each) for 30 minutes at room temperature. After 3 washes, cells were then analyzed by flow cytometry in a Gallios Beckman Coulter flow cytometer.

[2] = system: G-protein-coupled cell surface receptors (S1PR) designated S1P1-5; settings: cited from earlier work

Compound	melting point	B cells ([1]; cell count)	CD4+ ([1]; cell count)	CD8+ ([1]; cell count)	B cells ([1]; percentage)	CD4+ ([1]; percentage)	CD8+ ([1]; percentage)	WBC [1]	Kd [2]	immunosuppressive action / effectiveness (in words) [1]
CCC/C=C(\F)CC(N)COP(=O)(O)O (stereo not shown) [Compound B1087]	–	2.49 10^6/mL	0.42 10^6/mL	0.59 10^6/mL	35.20%	5.90%	8.40%	7.06 10^6/mL	–	–
NC(CO)(CO)CCc1ccc(CCCCCCF)cc1 [SSS 944, 2-Amino-2-(4-(6-fluorohexyl)phenethyl)propane-1,3-diol]	108 °C	–	–	–	–	–	–	–	–	–
CCC/C=C/CC(N)CO (stereo not shown) [SSS182]	–	2.91 10^6/mL	0.43 10^6/mL	0.48 10^6/mL	42.20%	6.30%	7.00%	6.90 10^6/mL	–	–
CCCCCCCCCCCCC/C=C/[C@@H](O)[C@@H](N)COP(=O)(O)O [Compound S1P, Sphingosine-1-phosphate]	–	–	–	–	–	–	–	–	8 to 20 nM	–
CCCCCCCCc1ccc(CCC(N)(CO)CO)cc1 [FTY 720, 2-Amino-2-(4-octylphenethyl)propane-1,3-diol, reference compound]	–	0.61 10^6/mL	0.02 10^6/mL	0.04 10^6/mL	20.08%	1.10%	0.30%	3.69 10^6/mL	–	–
CCCCCCCCc1ccc(C(O)CC(N)(CO)CO)cc1 (stereo not shown) [SSS 563, 3-Amino-3-(hydroxymethyl)-1-(4-octylphenyl)butane-1,4-diol]	74 to 76 °C	–	–	–	–	–	–	–	–	–
CCC/C=C/CC(N)COP(=O)(O)O (stereo not shown) [Compound B1088]	–	2.76 10^6/mL	0.34 10^6/mL	0.49 10^6/mL	38.60%	4.80%	6.90%	7.15 10^6/mL	–	–
CCCCCCCCCCCCCCCCC(N)(CO)CO [SSS1091, 2-Amino-2-hexadecylpropane-1,3-diol]	–	1.27 0.26 10^6/mL	0.09 0.02 10^6/mL	0.08 0.01 10^6/mL	–	–	–	4.14 0.60 10^6/mL	–	–
CCCCCCCCCCCCCCC(N)(CO)CO [SSS943, 2-Amino-2-tetradecylpropane-1,3-diol]	–	0.60 10^6/mL	0.04 10^6/mL	0.04 10^6/mL	35.21%	2.25%	2.35%	1.73 10^6/mL	–	–

Second part, led by results:

melting point	Compound	B cells ([1]; cell count)	CD4+ ([1]; cell count)	CD8+ ([1]; cell count)	B cells ([1]; percentage)	CD4+ ([1]; percentage)	CD8+ ([1]; percentage)	WBC [1]	Kd [2]	immunosuppressive action / effectiveness (in words) [1]
72 to 75 °C	CN(C)c1cccc2c(S(=O)(=O)NCCCCCCCCCCCCCCCCC(N)(CO)CO)cccc12 [SSS846, N-(17-Amino-18-hydroxy-17-(hydroxymethyl)octadecyl)-5-(dimethylamino)naphthalene-1-sulfonamide]	5.32 10^6/mL	0.98 10^6/mL	0.52 10^6/mL	57.30%	10.60%	5.60%	9.28 10^6/mL	–	–
57 °C	CCCCCCCCCCCCC/C=C/CC(N)(CO)CO [SSS822, (E)-2-Amino-2-(hexadec-2-en-1-yl)propane-1,3-diol]	1.17 0.33 10^6/mL	0.10 0.01 10^6/mL	0.12 0.05 10^6/mL	–	–	–	5.02 1.04 10^6/mL	–	–
52 °C	CCCCCCCCCCCCCCCCC(N)(CO)CF (stereo not shown) [SSS535, 2-Amino-2-(fluoromethyl)octadecan-1-ol]	3.54 10^6/mL	0.42 10^6/mL	0.39 10^6/mL	50.20%	6.00%	5.50%	7.05 10^6/mL	–	diminishes effectiveness
74 °C	CCCCCCCCCCCCC/C=C(/F)CC(N)(CO)CO [SSS864, (E)-2-Amino-2-(2-fluorohexadec-2-en-1-yl)propane-1,3-diol]	3.41 10^6/mL	0.28 10^6/mL	0.37 10^6/mL	64.70%	5.40%	7.00%	5.27 10^6/mL	–	–
68 to 70 °C	CCCCCCCCCCCCC/C=C(\F)CC(N)(CO)CO [SSS862, (Z)-2-Amino-2-(2-fluorohexadec-2-en-1-yl)propane-1,3-diol]	3.23 10^6/mL	0.27 10^6/mL	0.41 10^6/mL	60.90%	5.00%	7.80%	5.31 10^6/mL	–	–
96 to 98 °C	CCCCCCCCCCCCCCC(F)CC(N)(CO)CO (stereo not shown) [SSS517, 2-Amino-2-(2-fluorohexadecyl)propan-1,3-diol]	4.81 10^6/mL	0.54 10^6/mL	0.60 10^6/mL	42.40%	4.80%	5.30%	11.35 10^6/mL	–	very moderate immunosuppressive action
85 °C	NC(CO)(CO)CCCCCCCCCCCCCCCF [SSS890, 2-Amino-2-(15-fluoropentadecyl)propane-1,3-diol]	–	–	–	–	–	–	–	–	–
77 °C	NC(CO)(CO)CCCCCCCCCCCCCCCCF [SSS558, 2-Amino-2-(16-fluorohexadecyl)propan-1,3-diol]	1.52 0.04 10^6/mL	0.15 0.08 10^6/mL	0.13 0.04 10^6/mL	–	–	–	3.74 0.70 10^6/mL	–	–
108 to 110 °C	CCCCCCCCCCCCCCC(F)CC(N)(CO)CO.Cl (stereo not shown) [SSS564, 2-Amino-2-(2-fluorohexadecyl)propan-1,3-diol hydrochloride]	5.52 10^6/mL	0.65 10^6/mL	0.98 10^6/mL	42.20%	5.00%	7.50%	13.07 10^6/mL	–	–
